Reference: patent publication US8465788B2, “Arabinoxylans for modulating the barrier function of the intestinal surface” (BioActor B.V., priority 2008, dated 2013)

Experiments:
bifidobacteria = assay: DGGE fingerprint of the bifidobacterial community in the cecum of human-microbiota associated rats; format: in vivo, rat; conditions: 10% in diet, three weeks
Text: FIG. 3 DGGE (Denaturing Gradient Gel Electrophoresis) fingerprint profiles of the community of bifidobacteria in the cecum of three groups of human-microbiota associated rats (n=8/group) treated for 3 weeks with a control diet, inulin (10%) or AX (10%). The profiles were obtained after amplification of the bifidobacterial community using group-specific PCR primers.
Three groups of eight rats with human associated microbiotia were used in the experiment: • Control • Inulin • AX
During three weeks animals were treated with either 10% inulin, AX or a control diet (=5% sugar+5% cornstarch) in order to compare the prebiotic effects of both oligosaccharides. At the end of the three weeks, the animals were euthanized.
In addition to this, the composition of the bifidobacterial community in the cecum was monitored by Denaturing Gradient Gel Electrophoresis (DGGE) (FIG. 3). […] Bifidobacterium longum is one of most important inhabitants in the human body. This bacterium is very helpful because it maintains a normal digestive tract, inhibits the growth of harmful bacteria, and also boosts the immune system (Reinert, Birgit. “Friendly tenants in the human gut: The genome of B. longum”. 2002. Genome News Network).

intestinal bacteria = assay: Prebiotic Index (gut lumen) and Prebiotic Attachment Index (gut wall mucus) in TWINSHIME; format: cell-based, human; conditions: from day 23, TWINSHIME
Protocol: FIG. 4 Prebiotic Index (PI) and Prebiotic Attachment Index (PAI) before, during and after treatment with respectively inulin and AX. The X-axis indicates experiment days during the TWINSHIME run. Inulin or AX were administered to the TWINSHIME from day 2 until day 23.
In addition to the above-mentioned measurements, experiments were performed to quantify the attachment of intestinal bacteria to the mucus layer at the gut wall. As attachment to the gut wall is the first stage of interaction between bacteria and the human host (e.g. immunomodulation, pathogenesis), characterization of the microbial ecology at the site of the gut wall and assessment of changes in this community due to a prebiotic treatment is very important to evaluate the final health effects of a prebiotic treatment. Finally, the effect of the prebiotic treatment with inulin or AX on the composition of the microbial community in both the gut lumen and at the gut wall can be expressed quantitatively in specific indices.
The Prebiotic Index (PI) describes the increase in the gut lumen in beneficial bacteria, relative to harmful bacteria due to the prebiotic treatment. PI=(Bif/Total)+(Lac/Total)−(Ecol/Total)−(Clos/Total) […]
For both indices, an increase in the quantitative value is evaluated as positive, with the degree of increase as a parameter for success of the prebiotic treatment (FIG. 4).

[1] = system: fecal microbial community; assay: SHIME in vitro gastrointestinal model: short chain fatty acid (A, P, B) ratios; format: cell-based, human; conditions: for A ratio (A/(A + P + B)), Ascending colon / A ratio, Descending colon / A ratio, Transverse colon / B ratio, Ascending colon / B ratio, Descending colon / B ratio, Transverse colon / P ratio, Ascending colon / P ratio, Descending colon / P ratio, Transverse colon: TWINSHIME
Text: In Vitro Gastrointestinal Model—the Simulator of the Human Intestinal Microbial Ecosystem (SHIME)
The reactor setup was adapted from the SHIME, representing the gastrointestinal tract of the adult human, as described by Molly et al. (Molly, Woestyne et al. 1993). The SHIME consists of a succession of five reactors simulating the different parts of the human gastrointestinal tract. The first two reactors are of the fill-and-draw principle to simulate different steps in food uptake and digestion, with peristaltic pumps adding a defined amount of SHIME feed (140 mL 3×/day) and pancreatic and bile liquid (60 mL 3×/day), respectively to the stomach (V1) and duodenum (V2) compartment and emptying the respective reactors after specified intervals. The last three compartments are continuously stirred reactors with constant volume and pH control. Retention time and pH of the different vessels are chosen in order to resemble in vivo conditions in the different parts of the gastrointestinal tract. The overall residence time of the last three vessels, simulating the large intestine, is 76 h. Upon inoculation with fecal microbiota, these reactors simulate the ascending (V3), transverse (V4) and descending (V5) colon. Inoculum preparation, retention time, pH, temperature settings and reactor feed composition were previously described by Possemiers et al. (Possemiers, Verthe et al. 2004). In the comparison with of AX with inulin, two systems with identical environmental conditions (identical pH and temperature control) were run in parallel.
For the evaluation of the 2 prebiotics, the colon compartments of the SHIME reactors were first inoculated with an isolated fecal microbial community of a selected healthy volunteer. The SHIME reactor was operated under nominal conditions to stabilize the microbial community and let it adapt its metabolic activity and community composition to the conditions prevailing in the respective colon compartments. This stabilization period lasted for 3 weeks.
During the basal period, the SHIME reactor was operated under nominal conditions. Parameters such as short chain fatty acid (SCFA) production and ammonium production were determined 3 times/week. The results of these analyses served as the background values to be used to compare the measured parameters from the treatment period. The basal period lasted 2 weeks.
During the treatment period, the SHIME reactor was operated under nominal conditions, but with a modified diet containing a lower amount of starch in the medium compared to that of the basal period. In parallel, the ascending colon compartment of the first SHIME received inulin, whereas the second SHIME received AX. Both compounds were added in low doses of 1.5 g/d. SCFA and ammonium production were determined 3 times/week. This treatment period typically lasts for 3 weeks.
During the washout period, the SHIME reactor was operated under nominal conditions, with the initial diet. SCFA and ammonium production were determined 3 times/week. Analysis of these parameters allowed to assess whether possible changes from the treatment period normalize again to the levels of the basal period.
As acetate (A), propionate (P) and butyrate (B) are the main fatty acids produced by intestinal bacteria, the results are expressed as the ratio of each fatty acid to the sum of the 3 fatty acids.

Substance: inulin
- composition of the bifidobacterial community in the cecum (DGGE) (bifidobacteria): little changes
- Prebiotic Attachment Index (PAI) after stopping the administration (intestinal bacteria): returned back to baseline
- Prebiotic Index (PI) after stopping the administration (intestinal bacteria): returned back to baseline
- prebiotic effect (relative increase in P and B compared to A) in the colon compartments ([1]; SHIME, 1.5 g/d): only minor effects were observed in one colon compartment
- A ratio (A/(A + P + B)), Ascending colon ([1]; treatment period, 1.5 g/d): 0.45
- A ratio, Descending colon ([1]; treatment period, 1.5 g/d): 0.48
- A ratio, Transverse colon ([1]; treatment period, 1.5 g/d): 0.43
- B ratio, Ascending colon ([1]; treatment period, 1.5 g/d): 0.27
- B ratio, Descending colon ([1]; treatment period, 1.5 g/d): 0.24
- B ratio, Transverse colon ([1]; treatment period, 1.5 g/d): 0.26
- P ratio, Ascending colon ([1]; treatment period, 1.5 g/d): 0.29
- P ratio, Descending colon ([1]; treatment period, 1.5 g/d): 0.28
- P ratio, Transverse colon ([1]; treatment period, 1.5 g/d): 0.31
- A ratio (A/(A + P + B)), Ascending colon ([1]; wash-out period): 0.45
- A ratio, Descending colon ([1]; wash-out period): 0.53
- A ratio, Transverse colon ([1]; wash-out period): 0.44
- B ratio, Ascending colon ([1]; wash-out period): 0.20
- B ratio, Descending colon ([1]; wash-out period): 0.19
- B ratio, Transverse colon ([1]; wash-out period): 0.21
- P ratio, Ascending colon ([1]; wash-out period): 0.35
- P ratio, Descending colon ([1]; wash-out period): 0.28
- P ratio, Transverse colon ([1]; wash-out period): 0.35
